Assays:
primary human T-cells = assay: Cytokine secretion on protein level in activated primary human T-cells (13-plex FACS / Luminex, supernatant); format: cell-based; settings: substance 10^−9M
How it was run: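 Stimulus: PMA/Ionomycin or IFN-γ, 48 h; cells: HaCaT or human peripheral-blood T-cells; tripeptide treatment; readout: supernatant cytokines via 13-plex FACS or Luminex, 48–72 h post-stimulation.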

[1] = system: human keratinocyte cell line (HaCaT); assay: Cytokine secretion on protein level in activated human keratinocyte cell line HaCaT (13-plex FACS / Luminex, supernatant); format: cell-based; settings: substance 10^−9M
How it was run: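 First, T-cells are isolated from healthy donors' blood. Next, they and HaCaT keratinocytes are activated for 48 h with PMA/Ionomycin or IFN-γ in the presence of tripeptides. Finally, secreted cytokines are quantified in supernatants by 13-plex FACS at 48 and 72 h.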

[2] = primary human T-cells stimulated with PBS
[3] = primary human T-cells stimulated with PMA/Ionomycin
[4] = HaCaT stimulated with PMA/Ionomycin

N^α,N^α-dimethyl-(L)-Lys-(D)-Pro-N^α-methyl-(L)-Val-OH [Example 5]
IL-10 cytokine concentration (primary human T-cells; [2]): 119.04 pg/mL | IL-12p70 cytokine concentration (primary human T-cells; [2]): 0 pg/mL | IL-13 cytokine concentration (primary human T-cells; [2]): 35.75 pg/mL | IL-17 cytokine concentration (primary human T-cells; [2]): 0 pg/mL | IL-22 cytokine concentration (primary human T-cells; [2]): 0 pg/mL | INF-α cytokine concentration (primary human T-cells; [2]): 0 pg/mL | TNF-α cytokine concentration (primary human T-cells; [2]): 0 pg/mL | IL-1 cytokine concentration (primary human T-cells; [3]): 748 pg/mL | IL-2 cytokine concentration (primary human T-cells; [3]): 4369.09 pg/mL | IL-4 cytokine concentration (primary human T-cells; [3]): 92.43 pg/mL | IL-5 cytokine concentration (primary human T-cells; [3]): 392.66 pg/mL | IL-6 cytokine concentration (primary human T-cells; [3]): 1051.51 pg/mL | IL-9 cytokine concentration (primary human T-cells; [3]): 193.58 pg/mL | IL-10 cytokine concentration (primary human T-cells; [3]): 789.38 pg/mL | IL-12p70 cytokine concentration (primary human T-cells; [3]): 0 pg/mL | IL-13 cytokine concentration (primary human T-cells; [3]): 912.49 pg/mL | IL-17 cytokine concentration (primary human T-cells; [3]): 1164.75 pg/mL | IL-22 cytokine concentration (primary human T-cells; [3]): 0 pg/mL | INF-α cytokine concentration (primary human T-cells; [3]): 8770.62 pg/mL | TNF-α cytokine concentration (primary human T-cells; [3]): 2187.46 pg/mL | IL-1 cytokine concentration ([1]; HaCaT stimulated with IFN-γ): 0 pg/mL | IL-2 cytokine concentration ([1]; HaCaT stimulated with IFN-γ): 0 pg/mL | IL-4 cytokine concentration ([1]; HaCaT stimulated with IFN-γ): 0 pg/mL | IL-5 cytokine concentration ([1]; HaCaT stimulated with IFN-γ): 0 pg/mL | IL-6 cytokine concentration ([1]; HaCaT stimulated with IFN-γ): 415.82 pg/mL | IL-9 cytokine concentration ([1]; HaCaT stimulated with IFN-γ): 0 pg/mL | IL-10 cytokine concentration ([1]; HaCaT stimulated with IFN-γ): 41.86 pg/mL | IL-12p70 cytokine concentration ([1]; HaCaT stimulated with IFN-γ): 0 pg/mL | IL-13 cytokine concentration ([1]; HaCaT stimulated with IFN-γ): 1974.31 pg/mL | IL-17 cytokine concentration ([1]; HaCaT stimulated with IFN-γ): 0 pg/mL | IL-22 cytokine concentration ([1]; HaCaT stimulated with IFN-γ): 0 pg/mL | TNF-α cytokine concentration ([1]; HaCaT stimulated with IFN-γ): 0 pg/mL | IFN-γ cytokine concentration ([1]; HaCaT stimulated with PBS): 0 pg/mL | IL-1 cytokine concentration ([1]; HaCaT stimulated with PBS): 0 pg/mL | IL-2 cytokine concentration ([1]; HaCaT stimulated with PBS): 149.51 pg/mL | IL-4 cytokine concentration ([1]; HaCaT stimulated with PBS): 152.8 pg/mL | IL-5 cytokine concentration ([1]; HaCaT stimulated with PBS): 133.49 pg/mL | IL-6 cytokine concentration ([1]; HaCaT stimulated with PBS): 218.63 pg/mL | IL-9 cytokine concentration ([1]; HaCaT stimulated with PBS): 28.51 pg/mL | IL-10 cytokine concentration ([1]; HaCaT stimulated with PBS): 89.86 pg/mL | IL-12p70 cytokine concentration ([1]; HaCaT stimulated with PBS): 0 pg/mL | IL-13 cytokine concentration ([1]; HaCaT stimulated with PBS): 0 pg/mL | IL-17 cytokine concentration ([1]; HaCaT stimulated with PBS): 18.83 pg/mL | IL-22 cytokine concentration ([1]; HaCaT stimulated with PBS): 0 pg/mL | TNF-α cytokine concentration ([1]; HaCaT stimulated with PBS): 0 pg/mL | IFN-γ cytokine concentration [1, 4]: 199.65 pg/mL | IL-1 cytokine concentration [1, 4]: 104.98 pg/mL | IL-2 cytokine concentration [1, 4]: 145.65 pg/mL | IL-4 cytokine concentration [1, 4]: 168.7 pg/mL | IL-5 cytokine concentration [1, 4]: 1.93 pg/mL | IL-6 cytokine concentration [1, 4]: 379.04 pg/mL | IL-9 cytokine concentration [1, 4]: 0 pg/mL | IL-10 cytokine concentration [1, 4]: 59.49 pg/mL | IL-12p70 cytokine concentration [1, 4]: 0 pg/mL | IL-13 cytokine concentration [1, 4]: 0 pg/mL | IL-17 cytokine concentration [1, 4]: 95.44 pg/mL | IL-22 cytokine concentration [1, 4]: 0 pg/mL | TNF-α cytokine concentration [1, 4]: 27.45 pg/mL

Reference: patent publication US10954269B2, “Anti-inflammatory tripeptides” (Dr. August Wolff Gmbh & Co. KG Arzneimittel, priority 2013, dated 2021)
